Results published in US20200289450A1, “METHODS OF REDUCING OR PREVENTING OXIDATIVE MODIFICATION OF MEMBRANE POLYUNSATURATED FATTY ACIDS” (Amarin Pharmaceuticals Ireland Limited, priority 2013, published 2020).

Assays:
[1] = cited from earlier work
[2] = target: T1, HMG-CoA reductase (Homo sapiens, UniProt P04035); conditions: metabolized by hepatic cytochrome P450; cited from earlier work
T1 sequence (P04035 1-888): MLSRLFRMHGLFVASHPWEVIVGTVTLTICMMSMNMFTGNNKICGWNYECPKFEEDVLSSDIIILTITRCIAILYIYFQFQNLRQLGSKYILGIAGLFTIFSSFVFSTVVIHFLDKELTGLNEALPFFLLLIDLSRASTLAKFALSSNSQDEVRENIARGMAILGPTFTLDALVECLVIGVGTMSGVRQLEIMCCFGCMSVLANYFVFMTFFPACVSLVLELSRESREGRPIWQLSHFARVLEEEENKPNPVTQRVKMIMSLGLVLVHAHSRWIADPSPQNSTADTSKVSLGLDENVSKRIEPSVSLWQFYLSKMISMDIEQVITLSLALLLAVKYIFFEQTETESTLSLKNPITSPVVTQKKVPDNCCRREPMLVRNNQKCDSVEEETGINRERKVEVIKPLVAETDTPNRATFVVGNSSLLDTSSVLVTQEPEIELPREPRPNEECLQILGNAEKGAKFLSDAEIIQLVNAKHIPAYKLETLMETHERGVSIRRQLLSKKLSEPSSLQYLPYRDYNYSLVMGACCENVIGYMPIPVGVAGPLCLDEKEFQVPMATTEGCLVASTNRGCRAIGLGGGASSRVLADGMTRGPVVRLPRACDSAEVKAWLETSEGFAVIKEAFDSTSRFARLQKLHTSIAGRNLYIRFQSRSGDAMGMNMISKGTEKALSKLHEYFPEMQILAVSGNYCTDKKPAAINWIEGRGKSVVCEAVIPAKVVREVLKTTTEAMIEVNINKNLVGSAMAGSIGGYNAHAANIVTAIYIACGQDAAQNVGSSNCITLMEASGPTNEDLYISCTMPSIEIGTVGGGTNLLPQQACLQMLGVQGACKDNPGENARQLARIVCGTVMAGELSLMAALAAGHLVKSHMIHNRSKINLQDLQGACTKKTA

[3] = system: human low density lipoprotein and model liposomes; conditions: cited from earlier work
[4] = Glucose-induced membrane lipid peroxidation (LOOH), CHOD-iodide assay in MLVs (Example 4)
Description: Vitamin E (α-tocopherol) was also purchased from Sigma-Aldrich and prepared in ethanol at 1.0 mM (ϵ=3.06×10^4 M^−1 cm^−1 at 294 nm) just prior to experimental use. […] All test compounds were further diluted in ethanol or aqueous buffer as needed. Glucose was prepared in saline buffer (0.5 mM HEPES, 154 mM NaCl, pH 7.3) at 11.0 mM (200 mg/dL). CHOD-iodide color reagent (stock) was prepared, with slight modification, as described by from El-Saadani et al. (J. […] Prior to experimental use, the CHOD reagent was activated by adding 24 μM ethylenediaminetetraacetic acid (EDTA), 20 μM butylated hydroxytoluene (BHT), and 0.2% Triton X-100. Multilamellar vesicles (MLVs) were prepared as binary mixtures of DLPC (1.0 or 2.5 mg total phospholipid per sample) and cholesterol at a fixed cholesterol-to-phospholipid (C/P) mole ratio of 0.6:1. […] Aliquot volume was reduced with each successive time point to ensure that spectrophotometric readings were within the optimal adsorption range. […] Sample absorbances were then measured against a CHOD blank at 365 nm using a Beckman DU-640 spectrophotometer. The CHOD colorimetric assay is based on the oxidation of iodide (I^−) by lipid hydroperoxide (LOOH) to form triiodide (I3^−), the quantity of which is directly proportional to the amount of LOOH present in the lipid sample. […]

[5] = Glucose- and peroxidation-induced cholesterol domain formation, small angle x-ray diffraction (Example 4); type: physicochemical
Description: The membrane structural effects of glucose and the various compounds examined in this study were measured at 0, 72, and 96 hour intervals. Membrane lipid vesicles were oriented for x-ray diffraction analysis as described by others (e.g., Herbette et al., Biophys. J., vol. 20(2), pages 245-272 (1977)). Briefly, a 100 μL aliquot (containing 250 μg MLV) was aspirated from each sample and transferred to a Lucite® sedimentation cell fitted with an aluminum foil substrate upon which a given sample could be collected by centrifugation. Samples were then loaded into a Sorvall AH-629 swinging bucket rotor (DuPont Corp., Wilmington, Del.) and centrifuged at 35,000 g, 5° C., for 90 min.
After centrifugal orientation, sample supernatants were aspirated and aluminum foil substrates, each supporting a single membrane pellet, were removed from the sedimentation cells. Sample pellets were dried for 5-10 min at ambient conditions, mounted onto curved glass supports, and placed in hermetically-sealed, brass or glass containers (for immediate analysis or temporary storage, respectively). All x-ray diffraction experiments were conducted at 20° C., 74% relative humidity. The latter was established by exposing membrane samples to saturated solutions of L-(+) […] (K2C4H4O6.½H2O). Samples were incubated at these conditions for at least 1 hour prior to experimental analysis.
Oriented membrane samples were aligned at grazing incidence with respect to a collimated, mono-chromatic CuKα x-ray beam (Kα1 and Kα2 unresolved; λ=1.54 Å) produced by a Rigaku Rotaflex RU-200, high-brilliance microfocus generator (Rigaku-MSC, The Woodlands, Tex.) as previously described (Mason et al, Biophys. J., vol. 55(4), pages 769-778 (1989)). […]
The d-space for any given membrane multibilayer is a measurement of the unit cell periodicity of the membrane lipid bilayer (e.g., the distance from the center of one lipid bilayer to the next including surface hydration), and is calculated from Bragg's Law, hλ=2dsinθ, where h is the diffraction order, λ is the wavelength of the x-ray radiation (1.54 Å), d is the membrane lipid bilayer unit cell periodicity, and θ is the Bragg angle equal to one-half the angle between the incident beam and scattered beam.
The presence of cholesterol domains in a given membrane sample results in the production of distinct Bragg (diffraction) peaks having singular periodicity values of 34 and 17 Å (typically referred to as first- and second-order cholesterol domain peaks). Under the specific temperature and relative humidity conditions established for these experiments, the second-order, 17 Å cholesterol domain peak was well-delineated from other, neighboring cholesterol and phospholipid diffraction peaks and was thus used to quantitate relative cholesterol domain peak intensity. […]

[6] = system: human LDL (unfractionated); test: Copper-initiated oxidation of unfractionated LDL, TBARS (Example 6); conditions: 1.0 μM to 10.0 μM
Description: (§1) An experiment to study the antioxidant effect of EPA in small dense LDL (“sdLDL”) was performed. EPA was purchased from Sigma-Aldrich (Saint Louis, Mo.) and solubilized in ethanol to 1 mM under nitrogen atmosphere. Vitamin E (α-tocopherol) was purchased from Sigma-Aldrich and prepared in ethanol at 1.0 mM (ϵ=3.06×10^4 M^−1 cm^−1 at 294 nm) just prior to experimental use. All test compounds were further diluted in ethanol or aqueous buffer as needed.
(§2) Venous blood was collected from healthy volunteers into vacutainer tubes containing sodium EDTA. Plasma was separated by centrifugation at 3000 g for 25 min at 4° C. and adjusted to a density of 1.020 g/mL with KBr. […] Sample TBARS concentrations were determined spectrophotometrically by measuring sample absorbances against a standard curve derived from the hydrolysis of 1,1,3,3-tetramethoxypropane.
(§3) Data are presented as mean±S.D. for (N) separate samples or treatment groups. Differences between groups were analyzed using the two-tailed, Student's t-test (for comparisons between only two groups) or ANOVA followed by Dunnett or Student-Newman-Keuls multiple comparisons post-hoc analysis (for comparisons between three or more groups). […]

[7] = system: human sdLDL; test: Copper-initiated sdLDL oxidation, TBARS (Example 6)
Description: as §1, §2, §3

CC(C)c1c(C(=O)Nc2ccccc2)c(-c2ccccc2)c(-c2ccc(F)cc2)n1CC[C@@H](O)C[C@@H](O)CC(=O)O [atorvastatin]
circulating levels of chlorotyrosine ([1]; 10 mg, 12 weeks): significantly reduce
circulating levels of dityrosine ([1]; 10 mg, 12 weeks): significantly reduce
circulating levels of nitrotyrosine ([1]; 10 mg, 12 weeks): significantly reduce
levels of oxidized lipids associated with all apoB100-containing lipid particles ([1]; 80 mg, 16 weeks, 2,341 patients): significant reduction
share of circulating HMG-CoA reductase inhibitory activity accounted for by active metabolites [2]: approximately 70%

CC(C)c1c(C(=O)Nc2ccccc2O)c(-c2ccccc2)c(-c2ccc(F)cc2)n1CC[C@@H](O)C[C@@H](O)CC(=O)O [ATM, Atorvastatin ortho- (o-) hydroxy (active) metabolite]
antioxidant properties [3]: potent antioxidant properties
antioxidant effects (LOOH formation) ([4]; each at 1.0 μM, glucose 200 mg/dL, 96 hours): separate and potent antioxidant effects

Cc1c(C)c2c(c(C)c1O)CC[C@@](C)(CCC[C@H](C)CCC[C@H](C)CCCC(C)C)O2 [vitamin E, α-tocopherol]
effect on membrane structure compared to control samples ([5]; 0 hours (start of experiment), glucose 200 mg/dL, 1:30 drug-to-phospholipid mole ratio): no appreciable effect
cholesterol crystalline domain peaks (d-space 34 Å) ([5]; 72 hours oxidative conditions, glucose 200 mg/dL, 1:30): observed
cholesterol domain peaks ([5]; 96 hours oxidative conditions, glucose 200 mg/dL, 1:30): disproportionately greater
effect on cholesterol domain formation compared to control ([5]; any experimental time point (FIG. 5)): no significant effect
LDL oxidation [6]: did not inhibit LDL oxidation at any concentration
effect on LOOH formation / lipid peroxidation (FIG. 3) ([4]; 72- and 96-hour time points, glucose, 1:30 drug-to-phospholipid mole ratio): no significant effect
sdLDL oxidation ([7]; 1.0 μM to 10.0 μM): did not inhibit sdLDL oxidation except at the highest concentration
reduction of TBARS levels compared to vehicle-treated controls ([7]; sdLDL, 10.0 μM, 2 hr after 10 μM CuSO4): 26%
